The subject of experiment [1] is Trichogramma nubilale. Nature of the experiment: Contact toxicity against Trichogramma nubilale assessed as mortality after 24 hr by modified slight dry film method. It is filed as functional.
In experiment [2] the test system is Trichogramma nubilale.

Turning to `CCc1ccc(C(=O)NN(C(=O)c2cc(C)cc(C)c2)C(C)(C)C)cc1` [TEBUFENOZIDE], in the experiment on Trichogramma nubilale [1], the LC50 is 3452 mgAi/L and the LC95 was 21616 mgAi/L. In the case of `N#Cc1nn(-c2c(Cl)cc(C(F)(F)F)cc2Cl)c(N)c1[S+]([O-])C(F)(F)F` (stereo not given) [FIPRONIL], in the experiment with Trichogramma nubilale [1], the LC50 is recorded as 0.29 mgAi/L and the LC95 amounted to 1.82 mgAi/L.

Consider `O=[N+]([O-])/N=C1\NCCN1Cc1cnc(Cl)s1` [IMIDACLOTHIZ], for which, in the experiment on Trichogramma nubilale [1], the LC50 was determined as 75.27 mgAi/L and the LC95 was determined as 636.5 mgAi/L. With `CCCSP(=O)(OCC)Oc1ccc(Br)cc1Cl` (stereo not given) [PROFENOFOS], in the experiment with Trichogramma nubilale [1], the LC50 turned out to be 0.18 mgAi/L and the LC95 amounted to 1.73 mgAi/L.

With `O=[N+]([O-])/N=C1\NCCN1Cc1ccc(Cl)nc1` [IMIDACLOPRID], in the experiment with Trichogramma nubilale [1], the LC50 was found to be 311.9 mgAi/L and the LC95 was 2675 mgAi/L. In the same order, the values of `CNC(=O)Oc1cccc(C)c1` [METOLCARB] are 0.53 mgAi/L and 5.2 mgAi/L.

Consider `CCOP(=S)(OCC)O/N=C(\C#N)c1ccccc1` [PHOXIM], for which, in the experiment on Trichogramma nubilale [1], the LC50 was determined as 0.14 mgAi/L and the LC95 was 1.35 mgAi/L. As for `CNC(=O)Oc1cccc2ccccc12` [CARBARIL], the LC95 in the experiment on Trichogramma nubilale [1] is listed as 5.71 mgAi/L. In the case of `CC1(C)[C@H](/C=C(\Cl)C(F)(F)F)[C@@H]1C(=O)O[C@@H](C#N)c1cccc(Oc2ccccc2)c1` (relative stereo) [REL-LAMBDA CYHALOTHRIN], in the experiment with Trichogramma nubilale [1], the LC50 is given as 13.69 mgAi/L and the LC95 is reported as 127.6 mgAi/L. On to `CN1COCN(Cc2cnc(Cl)s2)/C1=N\[N+](=O)[O-]` [THIAMETHOXAM], for which, in the experiment on Trichogramma nubilale [1], the LC50 came to 1.86 mgAi/L and the LC95 is 13.35 mgAi/L.

For the compound `O=C(NC(=O)c1c(F)cccc1F)Nc1cc(Cl)c(Oc2ncc(C(F)(F)F)cc2Cl)c(Cl)c1` [CHLORFLUAZURON], in the experiment with Trichogramma nubilale [1], the LC50 is 7533 mgAi/L and the LC95 was 111205 mgAi/L.

Turning to `CCOP(=S)(OCC)Oc1nc(Cl)c(Cl)cc1Cl` [CHLORPYRIFOS], in the experiment on Trichogramma nubilale [1], the LC50 was 0.081 mgAi/L and the LC95 is 0.45 mgAi/L. Turning to `CCOP(=S)(OCC)Oc1ncn(-c2ccccc2)n1` [TRIAZOPHOS], in the experiment on Trichogramma nubilale [1], the LC50 stood at 1.81 mgAi/L and the LC95 turned out to be 21.65 mgAi/L.

As for `COP(=S)(OC)Oc1ccc([N+](=O)[O-])c(C)c1` [FENITROTHION], in the experiment on Trichogramma nubilale [1], the LC50 is on record as 2.1 mgAi/L and the LC95 amounted to 34.74 mgAi/L.

As to `CNC(=O)Oc1ccccc1C(C)C` [ISOPROCARB], in the experiment with Trichogramma nubilale [1], the LC50 was 0.12 mgAi/L and the LC95 was found to be 0.95 mgAi/L. For `CNC(=O)Oc1cc(C)cc(C(C)C)c1` [PROMECARB], in the experiment with Trichogramma nubilale [1], the LC50 is given as 0.32 mgAi/L and the LC95 stood at 1.91 mgAi/L. Take `CC1(C)C(/C=C(\Cl)C(F)(F)F)C1C(=O)OC(C#N)c1cccc(Oc2ccccc2)c1` (stereo not given) [CYHALOTHRIN]: in the experiment on Trichogramma nubilale [1], the LC50 amounted to 10.98 mgAi/L and the LC95 is reported as 93.25 mgAi/L.

For `N#C/N=C1\SCCN1Cc1ccc(Cl)nc1` [THIACLOPRID], in the experiment on Trichogramma nubilale [1], the LC50 is recorded as 56.73 mgAi/L and the LC95 was 461.2 mgAi/L.

In the experiment with Trichogramma nubilale [2], IVERMECTIN displayed an LC50 of 2.36 mgAi/L and an LC95 of 15.2 mgAi/L. Consider `C=C(C)CNc1c([S+]([O-])C(F)(F)F)c(C#N)nn1-c1c(Cl)cc(C(F)(F)F)cc1Cl` (stereo not given) [BUTENE-FIPRONIL], for which, in the experiment on Trichogramma nubilale [1], the LC50 is reported as 0.0068 mgAi/L and the LC95 is 0.0419 mgAi/L. For the compound `CC[S+]([O-])c1c(C#N)nn(-c2c(Cl)cc(C(F)(F)F)cc2Cl)c1N` (stereo not given) [ETHIPROLE], in the experiment with Trichogramma nubilale [1], the LC50 worked out at 4.67 mgAi/L and the LC95 worked out at 21.35 mgAi/L. Regarding `CC[C@H](C)[C@H]1O[C@]2(C=C[C@@H]1C)C[C@@H]1C[C@@H](C/C=C(\C)[C@@H](O[C@H]3C[C@H](OC)[C@@H](O[C@H]4C[C@H](OC)[C@@H](O)[C@H](C)O4)[C@H](C)O3)[C@@H](C)/C=C/C=C3\CO[C@@H]4[C@H](O)C(C)=C[C@@H](C(=O)O1)[C@]34O)O2.CO[C@H]1C[C@H](O[C@H]2[C@H](C)O[C@@H](O[C@@H]3/C(C)=C/C[C@@H]4C[C@@H](C[C@]5(C=C[C@H](C)[C@@H](C(C)C)O5)O4)OC(=O)[C@@H]4C=C(C)[C@@H](O)[C@H]5OC/C(=C\C=C\[C@@H]3C)[C@]54O)C[C@@H]2OC)O[C@@H](C)[C@@H]1O` [ABAMECTIN], in the experiment on Trichogramma nubilale [1], the LC50 is on record as 3.57 mgAi/L and the LC95 was determined as 25.42 mgAi/L. On to `CC1(C)C(C(=O)OC(C#N)c2cccc(Oc3ccccc3)c2)C1(C)C` (stereo not given) [FENPROPATHRIN], for which, in the experiment with Trichogramma nubilale [1], the LC50 came out at 150.3 mgAi/L and the LC95 is listed as 1327.5 mgAi/L.

Regarding `CCCCN(CCCC)SN(C)C(=O)Oc1cccc2c1OC(C)(C)C2` [CARBOSULFAN], in the experiment on Trichogramma nubilale [1], the LC50 turned out to be 0.95 mgAi/L and the LC95 turned out to be 7.4 mgAi/L.

Turning to `C/C(=N\C#N)N(C)Cc1ccc(Cl)nc1` [ACETAMIPRID], in the experiment on Trichogramma nubilale [1], the LC50 was determined as 19.24 mgAi/L and the LC95 turned out to be 167.9 mgAi/L. On to `O=C(NC(=O)c1c(F)cccc1F)Nc1cc(Cl)c(OC(F)(F)C(F)F)c(Cl)c1` [HEXAFLUMURON], for which, in the experiment on Trichogramma nubilale [1], the LC50 was 9672 mgAi/L and the LC95 is reported as 51197 mgAi/L. Consider `CCN(Cc1ccc(Cl)nc1)/C(=C/[N+](=O)[O-])NC` [NITENPYRAM], for which, in the experiment on Trichogramma nubilale [1], the LC50 is 4.37 mgAi/L and the LC95 is listed as 31.37 mgAi/L.

`CC1(C)C(C=C(Cl)Cl)C1C(=O)OC(C#N)c1cccc(Oc2ccccc2)c1` (stereo not drawn) [ALPHA-CYPERMETHRIN]: in the experiment on Trichogramma nubilale [1], the LC50 was 19.48 mgAi/L and the LC95 amounted to 176.8 mgAi/L.
